# In paper PMC5610471, “Use of the KlADH3 promoter for the quantitative production of the murine PDE5A isoforms in the yeast Kluyveromyces lactis” (Microbial Cell Factories, 2017):
# What was measured:
# PDE5A1 = biological target: T1, PDE5A1 (Mus musculus, UniProt Q8CG03); test: biochemical
# T1 construct: gene Pde5a
# [1] = test system: [H][C@@]12COP(=O)(O)O[C@@]1([H])[C@@H](O)[C@H](n1cnc3c(=O)[nH]c(N)nc31)O2; test: purified protein; conditions: Mg2+ ([…] MgCl2 in the assay buffer)
Compound,IC50 (PDE5A1),Km [1]
CCCc1nn(C)c2c(=O)[nH]c(-c3cc(S(=O)(=O)N4CCN(C)CC4)ccc3OCC)nc12 [Sildenafil],4.7 ± 1.1 nM,
PDE5A1 (Mus musculus),,1.08 ± 0.08 µM
